Data on 6 compounds can be found in patent publication US8394596B1 (priority 2012, dated 2013).

Common to all, as to format: binding
In assay [1] the test system is rabbit anti-BMAA antibody.
The subject of assay [2] is rabbit anti-BMAA antibody. Nature of the assay: Competitive ELISA for BMAA, second estimate of sensitivity with later-harvested antibody (Example 8). The conditions noted are these: antibody harvested after the 6th boost. The method, then: (§1) The ELISA method: • 1. Add either 100 μL of either a BMAA solution (0, 10, 25, 50, 100, 250, 500, 1000 ng/mL of BMAA) as a calibrator/standard solutions or 100 μL of a test sample into the wells of the test strips (coated with anti-rabbit IgG). Analysis in duplicate or triplicate is recommended. • 2. Add 50 μL of enzyme conjugate solution (BMAA-HRP) to the individual wells successively using a multi-channel pipette or a stepping pipette. • 3. Add 50 μL of antibody solution (rabbit anti-BMAA; for example one made by diluting by a factor of 8000 antiserum from a rabbit immunized according to Example 3 using BMAA-BSA as the immunogen) to the individual wells successively using a multi-channel pipette or a stepping pipette. Cover the wells with parafilm or tape and mix the contents by moving the strip holder in a circular motion on the benchtop for 30 seconds. Be careful not to spill the contents. The foregoing creates a total assay volume of 200 μL. • 4. Incubate the strips for 90 minutes at room temperature. • 5. Remove the covering and decant the contents of the wells into a sink. Wash the strips four times using the diluted washing buffer solution (1×PBS with 0.1% Tween), using at least a volume of 250 μL of washing buffer for each well in each washing step. Remaining buffer in the wells should be removed by patting the inverted plate dry on a stack of paper towels. • 6. Add 150 μL of substrate (color) solution ((TMB), BioFX cat #TMBW-1000 from Surmodics), to the wells. Cover the wells with parafilm or tape and mix the contents by moving the strip holder in a circular motion on the benchtop for 30 seconds. Be careful not to spill the contents. Incubate the strips for 30 minutes at room temperature. Protect the strips from direct sunlight. • 7. Add 100 μL of stop solution (2N HCl) to the wells in the same sequence as for the substrate solution. • 8. Read the absorbance at 450 nm using a microplate ELISA photometer within 15 minutes after the addition of stopping solution using a computer interfaced ELISA reader (Molecular Devices, Sunnyvale, Calif.). BMAA concentration in the unknown samples was estimated by comparison with a concurrently-run standard curve.
The procedure of Example 6 was followed except that (1) the BMAA concentrations tested were 5, 10, 25, 100, 250 and 500 ppb (corresponding to 5, 10, 25, 100, 250 and 500 ng/ml) and (2) an antibody preparation harvested later than that used for Example 6 was used. The antibodies harvested for this example were harvested after the 6th boost.
The sensitivity of the assay was estimated to be 2.5 ppb.

Assay [3] concerns rabbit anti-BMAA antibody. Nature of the assay: Competitive ELISA for BMAA on anti-rabbit IgG coated plates, estimate of sensitivity (Example 6). The conditions noted are these: antibody harvested after fourth booster. The protocol:
Rabbits were immunized with 0.5-1.0 mg of immunizing conjugate per rabbit per injection. The immunizing conjugate was emulsified with Complete Freund's Adjuvant for primary injections and with Incomplete Freund's Adjuvant for booster injections. Three or four booster injections were performed at monthly intervals to raise the desired titers. The rabbits were bled on 12±3 days following each booster injection. Antisera were monitored for titer and analyte specificity by capturing the relevant antibodies on ELISA plates coated with anti-rabbit IgG. The captured antibodies were measured in a subsequent step by incubating the plates with a BMAA-horseradish peroxidase (BMAA-HRP).
Three rabbits were immunized with an immunogen in which EDC was used to link BMAA to BSA according to Example 1. Three rabbits were immunized with an immunogen in which DSS was used to link BMAA to BSA according to Example 2. The rabbit with the highest antibody titer when tested with sera collected 14 days after the fourth booster was a rabbit that had been immunized with an immunogen in which DSS was used to link BMAA to BSA according to Example 2. Antibodies from that rabbit, harvested 14 days after the fourth booster were used to generate the data obtained from Example 6 below. Antibodies from that rabbit, harvested 14 days after the fourth booster were used to generate the data obtained from Example 8 below.
as §1
The procedure of Example 5 was followed using known amounts of BMAA. (The antibody preparation was that specified in Example 3 as having been used for Example 6). “Concentration (ng/ml)” refers to the concentration of the BMAA in the 100 μL of calibrator/standard solution referred to in step (1) of Example 5. […]

Setting [4] is: relative to BMAA 50% inhibition at 170 ng/ml, 0.2% compounds tested up to 500 ug/mL, 0.1% up to 1 mg/ml.

SMILES strings stand for the structures. Read-outs that look alike come from different tables or passages of the source.

For the compound `Cl.NCCC(N)C(=O)O` (racemic) [D,L-2,4-Diaminobutyric acid hydrochloride], the Cross-reactivity in assay [1] (setting [4]) amounted to 0.1%.
On to `CNC[C@H](N)C(=O)O` [BMAA, β-N-methylamino-L-alanine], for which the “B/Bo (%)” value in assay [2] (BMAA 5 ng/ml) is 93%; in assay [2] (BMAA 10 ng/ml) it was 88%; in assay [2] (BMAA 25 ng/ml) it was 77%; in assay [2] (BMAA 100 ng/ml) it was 49%; in assay [2] (BMAA 250 ng/ml) it was 30%; in assay [2] (BMAA 500 ng/ml) it was 19%. The “B/Bo (%)” value was 93% in assay [3] (BMAA 10 ng/ml in 100 μL standard solution); 85% in assay [3] (BMAA 25 ng/ml in 100 μL standard solution); 77% in assay [3] (BMAA 50 ng/ml in 100 μL standard solution); 64% in assay [3] (BMAA 100 ng/ml in 100 μL standard solution); 44% in assay [3] (BMAA 250 ng/ml in 100 μL standard solution); 29% in assay [3] (BMAA 500 ng/ml in 100 μL standard solution). The “B/Bo (%)” value in assay [3] (BMAA 1000 ng/ml in 100 μL standard solution) is given as 18%. The “sensitivity of the assay: concentration of BMAA needed to reduce B/Bo by 5 percent” value in assay [2] (Example 8) is 2.5 ppb; in assay [3] (Example 6), 7.5 ppb. In addition, in assay [1] (concentration in the 100 μL standard solution), the “concentration of BMAA causing 50% inhibition in the assay” value amounted to 170 nanograms/ml. For the same compound, the Cross-reactivity in assay [1] (setting [4]) came out at 100%.
With `N[C@@H](CC(=O)O)C(=O)O` [L-Aspartic acid], the Cross-reactivity in assay [1] was found to be 0.2%.
Regarding `Cl.N[C@@H](CS)C(=O)O` [L-Cysteine hydrochloride], the Cross-reactivity in assay [1] (setting [4]) came out at 0.2%.
On the same count and under the same terms, to `N[C@@H](CCC(=O)O)C(=O)O` [L-Glutamic acid] belongs 0.2%; to `NCCCC(=O)O` [γ-Aminobutyric acid], 0.2%.
